The results in this text go back to the COVID Moonshot data (paper PMC7615835).

Several values for one entry are separate records, joined by “and”; a condition that tells them apart may be missing. Identical values can stand only once. Some results are limits rather than exact numbers.

For this test, the target named is SARS-CoV-2 Main Protease (SARS-CoV-2) (UniProt P0DTD1).

`Cn1cnc(C(=O)N(c2ccc(C(C)(C)C)cc2)C(C(=O)NCCc2cccc(F)c2)c2cccnc2)cc1=O` (stereo not drawn): the IC50 (usually the point on the concentration scale where inhibition reaches its midpoint) is over 99.5 µM.

On to `O=C1CC(NC(=O)Cc2cccc(Cl)c2)C(=O)N1` (stereo not drawn), for which the IC50 was over 99.5 µM.

As for `CC(C)(C)c1ccc(N(C(=O)c2cocn2)C(C(=O)N2CCC(c3cccc(F)c3)CC2)c2cccnc2)cc1` (stereo not drawn), the concentration for half-maximal inhibition (IC50) turned out to be 9.46 µM.

Turning to `O=C(c1cc(=O)[nH]c2ccccc12)N1CCN(c2ccccc2F)CC1`, the half-maximal inhibitory concentration (IC50) worked out at 24 µM.

For `COc1ccc2c(c1)CN(C(=O)CCl)C(c1ccccc1)C2` (stereo not drawn), the half-maximal inhibitory concentration (IC50) was 3.74 µM.

In the case of `O=C(CCl)Nc1nc2c(S(=O)(=O)NCCc3ccccc3)cccc2s1`, the IC50 was 5.03 µM and 14.2 µM and 37.5 µM.

Molecule `O=C(Nc1cncc2cc(Cl)ccc12)C12CC(C1)Oc1ccc(Cl)cc12` gave an IC50 of over 99.5 µM.

As to `O=C(Cc1cccc(Cl)c1)Nc1cncc2nccnc12`, the IC50 is 76 µM.

Regarding `Cc1ccc2nc(Nc3cc(Cl)cc(CC(=O)Nc4cncc5ccccc45)c3)sc2c1`, the IC50 worked out at 22.9 µM.

Take `COC(=O)c1cc(/C=c2\sc(=C(C#N)C#N)n(-c3cccc(C(F)(F)F)c3)c2=O)oc1C`: the 50% inhibitory concentration (IC50) is over 99.5 µM.

Regarding `N#CC1(CS(=O)(=O)N2Cc3ccc(Cl)cc3C(C(=O)Nc3cncc4ccccc34)C2)CCCC1` (stereo not drawn), the IC50 is 0.079 µM and 0.0884 µM.

`O=C(Cc1cc(Cl)cc(NCc2cccc(Br)c2)c1)Nc1cncc2ccccc12` gave a half-maximal inhibitory concentration (IC50) of 1.48 µM.

With `COc1cc(C)ccc1CN(C(=O)c1cocn1)C(C(=O)NCCc1cccc(F)c1)c1cccnc1` (stereo not drawn), the IC50 is over 99.5 µM.

Molecule `Cc1nc2ccc(N(C(=O)c3cocn3)C(C(=O)NCCc3cccc(F)c3)c3cccnc3)cc2o1` (stereo not drawn) had an IC50 of over 99.5 µM.

As to `O=C(NCCc1cccc(F)c1)C(c1cccnc1)N(C(=O)c1cocn1)C1COc2cc(F)ccc21` (stereo not drawn), the IC50 is over 99.5 µM.

`CNC(=O)CN1Cc2ccc(Cl)cc2C(C(=O)Nc2cncc3cc(NS(C)(=O)=O)ccc23)C1` (stereo not drawn) registered a concentration for half-maximal inhibition (IC50) of 0.0728 µM.

For `COc1ccc(CNc2cc(Cl)cc(CC(=O)Nc3cncc4ccccc34)c2)c(OC)c1`, the IC50 is 3.37 µM.

`O=S(=O)(Cc1ccccc1F)c1oc(-c2ccc(F)cc2)nc1S(=O)(=O)c1ccccc1` returned an IC50 of 0.397 µM.

In turn, `O=C(Cc1cc(Cl)cc(Nc2ccc(F)c(F)c2Br)c1)Nc1cncc2ccccc12` registered an IC50 of 1.94 µM.

The molecule `CC(CNC(=O)c1cnc2ccccn12)Nc1nc2ccccc2o1` (stereo not drawn) yielded an IC50 of over 99.5 µM.

Molecule `COc1ccc(CNCC2(C(=O)Nc3cncc4ccccc34)CCOc3ccc(Cl)cc32)cc1OCC(N)=O` (stereo not drawn) had a 50% inhibitory concentration (IC50) of 11.5 µM.

In turn, `Cn1cc(NC(=O)Cc2cccc(Cl)c2)c2ccccc2c1=O` registered a 50% inhibitory concentration (IC50) of over 99.5 µM.

As to `NS(=O)(=O)c1ccc(CNC(=O)CC2(C(=O)Nc3cncc4ccccc34)CCOc3ccc(Cl)cc32)cc1` (stereo not drawn), the IC50 was found to be 3.72 µM.

As for `O=C(CCl)N1CCN(Cc2cccs2)CC1`, the 50% inhibitory concentration (IC50) was 5.66 µM and 6.77 µM.

Take `CCOc1ccc(N(C(=O)c2cocn2)C(C(=O)NCCc2cccc(F)c2)c2cccnc2)cn1` (stereo not drawn): the half-inhibitory concentration (IC50) was over 99.5 µM.

In turn, `COCCNC(=O)[C@@H](c1ccccc1)N1Cc2ccccc2C1=O` (stereo in doubt) had an IC50 of over 99.5 µM.

The molecule `Cn1ccn2c(CNc3nc4ccccc4s3)nnc2c1=O` yielded a half-maximal inhibitory concentration (IC50) of over 99.5 µM.

Turning to `O=C(NCCc1cccc(F)c1)C(c1cccnc1)N(C(=O)c1cnc[nH]1)c1ccc(Cn2cccn2)cc1` (stereo not drawn), the IC50 came to 35.5 µM.

Take `COc1ccccc1OCCNC(=O)c1cc(=O)ccn1C`: the IC50 was over 99.5 µM.

Molecule `C=CC(=O)NCc1ccc(C(=O)N[C@H](CO)c2ccc(Br)c(F)c2)cc1` (stereo in doubt) yielded a half-maximal inhibitory concentration (IC50) of over 99.5 µM.

`CNc1ccc(N(C(=O)Cn2nnc3ccccc32)c2cccc(Cl)c2)cc1`: the IC50 was 5.34 µM.

`COc1ncncc1C(C(=O)NCCc1cccc(F)c1)N(C(=O)c1cocn1)c1ccc(C(C)(C)C)cc1` (stereo not drawn) had an IC50 of 8.43 µM.

Molecule `CC(C(=O)Nc1cncnc1)c1ccccc1` (stereo not drawn) returned a 50% inhibitory concentration (IC50) of over 99.5 µM.

For the molecule `O=C(Nc1cncc2ccccc12)C1CN(S(=O)(=O)CC2CC2)Cc2ccc(Cl)cc21` (stereo not drawn), the half-maximal inhibitory concentration (IC50) amounted to 0.168 µM.

In turn, `O=C(NNc1cc(O)nc2ncccc12)c1ccc2[nH]ccc2c1` yielded an IC50 of over 99.5 µM.

With `COc1cc2c(cc1Nc1cc(Cl)cc(CC(=O)Nc3cncc4ccccc34)c1)oc1ccccc12`, the IC50 is 1.87 µM.

With `CNC(=O)CN1CC(C)(C(=O)Nc2cncc3ccccc23)c2cc(Cl)ccc2C1=O` (stereo not drawn), the half-inhibitory concentration (IC50) is 0.128 µM and 0.214 µM.

With `O=C(O)CCc1cc2c(cc1S(=O)(=O)N1CCN(c3ccccc3)CC1)OCO2`, the 50% inhibitory concentration (IC50) was over 99.5 µM.

In the case of `CC1(C)OB(c2cnc(C#N)nc2)OC1(C)C`, the half-maximal inhibitory concentration (IC50) was over 99.5 µM.

Regarding `CC(C)(C(N)=O)c1ccc(N(Cc2ccsc2)C(=O)Cn2nnc3ccccc32)cc1`, the concentration for half-maximal inhibition (IC50) stood at 3.17 µM.

Turning to `C=CC(=O)N(c1ccc(C(F)(F)F)cc1)C(C(=O)NCCc1cccc(F)c1)c1cccnc1` (stereo not drawn), the IC50 amounted to 20.1 µM.

Molecule `O=C(c1ccc(N2CCCC2)nc1)N1CCCC(c2ccn[nH]2)C1` (stereo not drawn) displayed an IC50 of over 99.5 µM.

`O=c1[nH]c2ccc(-c3csc(NCc4ccc(F)cc4)n3)cc2o1` showed an IC50 of over 99.5 µM.

In the case of `CC(C)OCc1cc(C(=O)N2CCC(C3CCNC3)CC2)ccc1F` (stereo not drawn), the IC50 is over 99.5 µM.

For the molecule `O=C(Cc1cc(Cl)cc(Nc2ccccc2Cc2ccccc2)c1)Nc1cncc2ccccc12`, the IC50 turned out to be 1.97 µM.

In the case of `CN(c1cc(Cl)cc(CC(=O)Nc2cncc3ccccc23)c1)C1CCN(C(=O)OC(C)(C)C)CC1`, the concentration for half-maximal inhibition (IC50) was 2.5 µM.

Molecule `CC(C)NC(=O)CN1CC(C(=O)Nc2cncc3ccccc23)c2cc(Cl)ccc2C1=O` (stereo not drawn) gave an IC50 of 0.389 µM.

Regarding `O=C(NCCc1cccc(F)c1)C(c1cccnc1)N(Cc1c(O)ccc2c1CCCC2)C(=O)c1ccco1` (stereo not drawn), the half-maximal inhibitory concentration (IC50) is 12.1 µM.

For `O=C(Nc1cccnc1)c1cc(Cl)ccc1-c1ccccc1`, the 50% inhibitory concentration (IC50) was 39.1 µM.

For `O=C(Cc1cc(Cl)cc(Nc2ccc(C(F)(F)F)cc2)c1)Nc1cncc2ccccc12`, the IC50 was 2.06 µM.

`COc1cc(Cl)c(C)cc1Nc1cc(Cl)cc(CC(=O)Nc2cncc3ccccc23)c1` registered a half-maximal inhibitory concentration (IC50) of 1.58 µM.

As to `O=C(Nc1cncc2ccccc12)C12CCC(O1)c1ccc(Cl)cc12` (stereo not drawn), the IC50 came out at 11.1 µM.

The molecule `CC(C)(C)c1ccc(N(C(=O)C2CCCN2)C(C(=O)NCCc2cccc(F)c2)c2cccnc2)cc1` (stereo not drawn) had an IC50 of over 99.5 µM.

The molecule `Cc1ccncc1OCCNC(=O)C(C)(C)c1cccc(Cl)c1` had an IC50 of over 99.5 µM.

In turn, `COc1cc(CNc2cc(Cl)cc(CC(=O)Nc3cncc4ccccc34)c2)cc(OC)c1` had an IC50 of 2.87 µM.

`O=C(CC1(C(=O)Nc2cncc3ccccc23)CCOc2ccc(Cl)cc21)N1CCCCC1c1ccn[nH]1` (stereo not drawn) returned a 50% inhibitory concentration (IC50) of 0.616 µM.

For `O=C(Cc1cc(Cl)cc(Nc2ccc(Br)c(C(F)(F)F)c2)c1)Nc1cncc2ccccc12`, the IC50 came out at 2.31 µM.

Take `O=C(Nc1cncc2ccccc12)C1CN(Cc2nnc[nH]2)Cc2ccc(Cl)cc21` (stereo not drawn): the half-maximal inhibitory concentration (IC50) came out at 0.784 µM.

For the molecule `O=C(Cc1cc(Cl)cc(Nc2cccc3ccc(O)cc23)c1)Nc1cncc2ccccc12`, the IC50 came out at 3.2 µM.

`N#CC1(CS(=O)(=O)N2Cc3ccc(Cl)cc3C3(CCN(c4cncc5ccccc45)C3=O)C2)CCC1` (stereo not drawn) showed an IC50 of 0.263 µM.

`COc1ccc(N2CCN(C(=O)c3cc(=O)[nH]c4ccccc34)CC2)cc1` yielded a concentration for half-maximal inhibition (IC50) of 14.7 µM.

`CC(C)C[C@@H](NC(=O)[C@@H](Cc1ccccc1)NC(=O)[C@H](N)Cc1ccccc1)C(=O)N[C@H](CCCCN)C(=O)N1CCC(N)(C(=O)O)CC1` (stereo in doubt) yielded an IC50 of over 99 µM.

Consider `O=C(Nc1nn2cnnc2s1)c1csc(-c2ccccc2)n1`, for which the IC50 is over 99.5 µM.
